Source: the NIST ThermoML archive (doi:10.1016/j.jct.2012.12.001)
Where “and” joins values, the source holds several entries; their conditions need not be identical. Equal values may be shown once. Numbers after ± are expanded uncertainties.

Assay: heat capacity at constant pressure per volume; xn = mol fraction of the nth substance listed
Conditions: 101 kPa, Liquid, DSC, x2 = 0.695

CCCCCCCCCCCCCCCCC [heptadecane] + N#Cc1ccccc1
Conditions	heat capacity
298.05 K	1856100 ± 20000 J/K/m3
298.14 K	1849900 ± 20000 J/K/m3
298.24 K	1857600 ± 20000 J/K/m3
298.34 K	1869500 ± 20000 J/K/m3
298.44 K	1867300 ± 20000 J/K/m3 and 1868100 ± 20000 J/K/m3
298.54 K	1868700 ± 20000 J/K/m3
298.63 K	1857900 ± 20000 J/K/m3
298.73 K	1860800 ± 20000 J/K/m3
298.83 K	1865800 ± 20000 J/K/m3
298.93 K	1874400 ± 20000 J/K/m3
299.02 K	1881300 ± 20000 J/K/m3
299.12 K	1876400 ± 20000 J/K/m3
299.22 K	1870300 ± 20000 J/K/m3
299.32 K	1856400 ± 20000 J/K/m3 and 1858200 ± 20000 J/K/m3
299.42 K	1872800 ± 20000 J/K/m3
299.52 K	1876300 ± 20000 J/K/m3
299.61 K	1873800 ± 20000 J/K/m3
299.71 K	1875400 ± 20000 J/K/m3
299.81 K	1870400 ± 20000 J/K/m3
299.91 K	1865300 ± 20000 J/K/m3
300 K	1870300 ± 20000 J/K/m3
300.1 K	1879700 ± 20000 J/K/m3
300.2 K	1876100 ± 20000 J/K/m3
300.3 K	1884400 ± 20000 J/K/m3
300.4 K	1880100 ± 20000 J/K/m3
300.49 K	1877500 ± 20000 J/K/m3
300.59 K	1873500 ± 20000 J/K/m3
300.69 K	1871300 ± 20000 J/K/m3
300.79 K	1885700 ± 20000 J/K/m3 and 1882900 ± 20000 J/K/m3
300.89 K	1883300 ± 20000 J/K/m3
300.98 K	1885200 ± 20000 J/K/m3
301.08 K	1880800 ± 20000 J/K/m3
301.18 K	1881200 ± 20000 J/K/m3
301.28 K	1861100 ± 20000 J/K/m3
301.37 K	1877300 ± 20000 J/K/m3
301.47 K	1892900 ± 20000 J/K/m3
301.57 K	1896800 ± 20000 J/K/m3
301.67 K	1885900 ± 20000 J/K/m3 and 1887800 ± 20000 J/K/m3
301.77 K	1883300 ± 20000 J/K/m3
301.87 K	1884700 ± 20000 J/K/m3
301.96 K	1888400 ± 20000 J/K/m3
302.06 K	1899800 ± 20000 J/K/m3
302.16 K	1898500 ± 20000 J/K/m3
302.26 K	1888500 ± 20000 J/K/m3
302.35 K	1894400 ± 20000 J/K/m3
302.45 K	1890300 ± 20000 J/K/m3
302.55 K	1891200 ± 20000 J/K/m3
302.65 K	1899800 ± 20000 J/K/m3 and 1900100 ± 20000 J/K/m3
302.75 K	1891400 ± 20000 J/K/m3
302.85 K	1889600 ± 20000 J/K/m3
302.95 K	1885100 ± 20000 J/K/m3
303.15 K	1906400 ± 20000 J/K/m3
303.35 K	1896200 ± 20000 J/K/m3
303.45 K	1894500 ± 20000 J/K/m3
303.55 K	1902400 ± 20000 J/K/m3
303.65 K	1898100 ± 20000 J/K/m3
303.75 K	1898100 ± 20000 J/K/m3
303.85 K	1893900 ± 20000 J/K/m3
304.05 K	1908600 ± 20000 J/K/m3
304.15 K	1904800 ± 20000 J/K/m3
304.25 K	1897700 ± 20000 J/K/m3 and 1899000 ± 20000 J/K/m3
304.35 K	1888500 ± 20000 J/K/m3 and 1889600 ± 20000 J/K/m3
304.45 K	1900600 ± 20000 J/K/m3
304.55 K	1901500 ± 20000 J/K/m3
304.65 K	1903900 ± 20000 J/K/m3
304.75 K	1894400 ± 20000 J/K/m3
304.85 K	1881800 ± 20000 J/K/m3
304.95 K	1915800 ± 20000 J/K/m3
305.05 K	1912200 ± 20000 J/K/m3
305.15 K	1901900 ± 20000 J/K/m3
305.25 K	1924700 ± 20000 J/K/m3
305.35 K	1907800 ± 20000 J/K/m3
305.45 K	1925500 ± 20000 J/K/m3
305.55 K	1943100 ± 20000 J/K/m3
305.65 K	1963900 ± 20000 J/K/m3
305.75 K	1942400 ± 20000 J/K/m3
305.85 K	1924200 ± 20000 J/K/m3
305.95 K	1983400 ± 20000 J/K/m3
306.05 K	1910400 ± 20000 J/K/m3
306.15 K	2011200 ± 20000 J/K/m3
306.25 K	1898300 ± 20000 J/K/m3
306.35 K	2003200 ± 20000 J/K/m3
306.45 K	1935800 ± 20000 J/K/m3
306.55 K	2021100 ± 20000 J/K/m3
306.65 K	1945600 ± 20000 J/K/m3
306.75 K	2006800 ± 20000 J/K/m3
306.85 K	1978000 ± 20000 J/K/m3
307.05 K	2038400 ± 22000 J/K/m3
307.15 K	2126900 ± 28000 J/K/m3
307.25 K	1846500 ± 38000 J/K/m3
307.35 K	1804900 ± 21000 J/K/m3
307.45 K	1791700 ± 20000 J/K/m3
307.55 K	1787300 ± 20000 J/K/m3
307.65 K	1779800 ± 20000 J/K/m3
307.75 K	1775700 ± 20000 J/K/m3
307.85 K	1767300 ± 20000 J/K/m3
307.95 K	1764000 ± 20000 J/K/m3
308.05 K	1758800 ± 20000 J/K/m3
308.15 K	1759200 ± 20000 J/K/m3
308.23 K	1750200 ± 20000 J/K/m3
308.35 K	1756500 ± 20000 J/K/m3
308.45 K	1756400 ± 20000 J/K/m3
308.55 K	1753500 ± 20000 J/K/m3
308.65 K	1748300 ± 20000 J/K/m3
308.75 K	1746500 ± 20000 J/K/m3
308.85 K	1745200 ± 20000 J/K/m3
308.95 K	1748100 ± 20000 J/K/m3
309.05 K	1747000 ± 20000 J/K/m3
309.14 K	1747900 ± 20000 J/K/m3
309.25 K	1743700 ± 20000 J/K/m3
309.35 K	1742200 ± 20000 J/K/m3
309.45 K	1738100 ± 20000 J/K/m3
309.55 K	1735200 ± 20000 J/K/m3
309.65 K	1738100 ± 20000 J/K/m3
309.75 K	1736500 ± 20000 J/K/m3
309.85 K	1737600 ± 20000 J/K/m3
309.95 K	1740400 ± 20000 J/K/m3
310.05 K	1736900 ± 20000 J/K/m3
310.15 K	1731900 ± 20000 J/K/m3
310.25 K	1735000 ± 20000 J/K/m3
310.35 K	1732200 ± 20000 J/K/m3
310.45 K	1727800 ± 20000 J/K/m3
310.55 K	1733700 ± 20000 J/K/m3
310.65 K	1733500 ± 20000 J/K/m3
310.75 K	1728600 ± 20000 J/K/m3
310.85 K	1733600 ± 20000 J/K/m3
310.95 K	1730900 ± 20000 J/K/m3
311 K	1732600 ± 20000 J/K/m3
311.1 K	1732200 ± 20000 J/K/m3
311.2 K	1728000 ± 20000 J/K/m3
311.3 K	1725400 ± 20000 J/K/m3
311.4 K	1724600 ± 20000 J/K/m3
311.5 K	1725800 ± 20000 J/K/m3
311.6 K	1729500 ± 20000 J/K/m3
311.7 K	1732300 ± 20000 J/K/m3
311.8 K	1728700 ± 20000 J/K/m3
311.9 K	1728100 ± 20000 J/K/m3
312 K	1725500 ± 20000 J/K/m3
312.1 K	1723400 ± 20000 J/K/m3
312.2 K	1722200 ± 20000 J/K/m3
312.3 K	1721300 ± 20000 J/K/m3
312.4 K	1724000 ± 20000 J/K/m3
312.5 K	1727600 ± 20000 J/K/m3
312.6 K	1725700 ± 20000 J/K/m3
312.7 K	1727300 ± 20000 J/K/m3
312.8 K	1722600 ± 20000 J/K/m3
312.9 K	1722100 ± 20000 J/K/m3
313 K	1720300 ± 20000 J/K/m3
313.1 K	1719600 ± 20000 J/K/m3
313.2 K	1723400 ± 20000 J/K/m3
313.3 K	1724400 ± 20000 J/K/m3
313.4 K	1725500 ± 20000 J/K/m3
313.5 K	1720500 ± 20000 J/K/m3
313.6 K	1717000 ± 20000 J/K/m3
313.7 K	1718300 ± 20000 J/K/m3
313.8 K	1719300 ± 20000 J/K/m3
313.9 K	1720600 ± 20000 J/K/m3
314 K	1725600 ± 20000 J/K/m3
314.1 K	1722200 ± 20000 J/K/m3
314.2 K	1723200 ± 20000 J/K/m3
314.3 K	1718000 ± 20000 J/K/m3
314.4 K	1717600 ± 20000 J/K/m3
314.5 K	1721100 ± 20000 J/K/m3
314.6 K	1727600 ± 20000 J/K/m3
314.7 K	1722500 ± 20000 J/K/m3
314.8 K	1716700 ± 20000 J/K/m3
314.9 K	1717900 ± 20000 J/K/m3
315 K	1715800 ± 20000 J/K/m3
315.1 K	1719700 ± 20000 J/K/m3
315.2 K	1722400 ± 20000 J/K/m3
315.3 K	1721800 ± 20000 J/K/m3
315.4 K	1717200 ± 20000 J/K/m3
315.5 K	1714900 ± 20000 J/K/m3
315.6 K	1718500 ± 20000 J/K/m3
315.7 K	1724700 ± 20000 J/K/m3
315.8 K	1719600 ± 20000 J/K/m3
315.9 K	1715500 ± 20000 J/K/m3
316 K	1715800 ± 20000 J/K/m3
316.1 K	1715600 ± 20000 J/K/m3
316.2 K	1721400 ± 20000 J/K/m3
316.3 K	1718600 ± 20000 J/K/m3
316.4 K	1718400 ± 20000 J/K/m3
316.5 K	1717700 ± 20000 J/K/m3
316.6 K	1724000 ± 20000 J/K/m3
316.7 K	1724400 ± 20000 J/K/m3
316.8 K	1719200 ± 20000 J/K/m3
317.16 K	1722200 ± 20000 J/K/m3
317.2 K	1722100 ± 20000 J/K/m3
317.31 K	1721500 ± 20000 J/K/m3
317.4 K	1721700 ± 20000 J/K/m3
317.5 K	1722100 ± 20000 J/K/m3
317.6 K	1721900 ± 20000 J/K/m3
317.7 K	1721900 ± 20000 J/K/m3
317.8 K	1721800 ± 20000 J/K/m3
317.9 K	1721500 ± 20000 J/K/m3
318 K	1721300 ± 20000 J/K/m3
318.1 K	1721300 ± 20000 J/K/m3
318.2 K	1721200 ± 20000 J/K/m3
318.3 K	1721100 ± 20000 J/K/m3
318.41 K	1721000 ± 20000 J/K/m3
318.5 K	1721100 ± 20000 J/K/m3
318.6 K	1721300 ± 20000 J/K/m3
318.7 K	1721400 ± 20000 J/K/m3
318.8 K	1721400 ± 20000 J/K/m3
318.9 K	1721100 ± 20000 J/K/m3
